Measured values published in patent publication US20230183237A1, “COMPETITIVE AND NONCOMPETITIVE INHIBITORS OF THE MUSCARINIC ACETYLCHOLINE RECEPTOR M5” (Vanderbilt University, priority 2020, published 2023).

Biological target: T1, hM5 (Homo sapiens, UniProt P08912)
T1 construct: expressed in transfected cells
T1 sequence (P08912 1-532): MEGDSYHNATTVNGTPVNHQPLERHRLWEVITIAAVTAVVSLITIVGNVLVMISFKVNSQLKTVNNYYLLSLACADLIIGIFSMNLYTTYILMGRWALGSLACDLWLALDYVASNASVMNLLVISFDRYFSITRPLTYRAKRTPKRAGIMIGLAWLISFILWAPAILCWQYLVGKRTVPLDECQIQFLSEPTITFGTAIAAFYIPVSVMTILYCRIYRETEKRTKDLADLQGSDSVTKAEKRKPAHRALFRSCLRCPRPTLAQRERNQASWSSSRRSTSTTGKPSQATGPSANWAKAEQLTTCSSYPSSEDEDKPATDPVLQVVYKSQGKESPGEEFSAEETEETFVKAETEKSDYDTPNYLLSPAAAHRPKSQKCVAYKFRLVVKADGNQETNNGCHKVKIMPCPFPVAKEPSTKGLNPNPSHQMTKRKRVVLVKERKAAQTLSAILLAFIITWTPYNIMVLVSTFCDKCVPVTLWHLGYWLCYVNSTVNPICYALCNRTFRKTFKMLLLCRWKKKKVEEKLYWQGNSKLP
Assay: Calcium mobilization concentration-response (IC50 vs EC80 acetylcholine), CHO hM5
Type: cell-based
Settings: CELL LINE hM5; vs EC80 acetylcholine; read-out: IC50
Procedure, shortened: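 IC50 values derive from percent maximal acetylcholine response after an EC80 ACh addition, measured as kinetic calcium fluorescence (static ratio, max−min). Test compounds were added 140 s before agonist. Cells: stable hM5-CHO in HEPES-buffered HBSS with 2.5 mM probenecid, pH 7.4; ≥3 independent triplicate determinations.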

Row | SMILES | IC50
1 | CCc1cc2ncnn2cc1C1CCN(S(=O)(=O)c2cnc(C)o2)CC1 [Compound 496, 5-((4-(7-ethyl-[1,2,4]triazolo[1,5-a]pyridin-6-yl)piperidin-1-yl)sulfonyl)-2-methyloxazole] | 889 nM
2 | Cc1ncc(S(=O)(=O)N2CCC(c3cn4ncnc4cc3C(F)F)CC2)o1 [Compound 497, 5-((4-(7-(difluoromethyl)-[1,2,4]triazolo[1,5-a]pyridin-6-yl)piperidin-1-yl)sulfonyl)-2-methyloxazole] | 141 nM
3 | Cc1ncc(S(=O)(=O)N2CCC(c3cn4ncnc4cc3C(F)(F)F)CC2)o1 [Compound 498, 2-methyl-5-((4-(7-(trifluoromethyl)-[1,2,4]triazolo[1,5-a]pyridin-6-yl)piperidin-1-yl)sulfonyl)oxazole] | 496 nM
4 | Cc1cc2ncnn2cc1C1CCN(S(=O)(=O)c2conc2C)CC1 [Compound 499, 3-methyl-4-((4-(7-methyl-[1,2,4]triazolo[1,5-a]pyridin-6-yl)piperidin-1-yl)sulfonyl)isoxazole] | 4510 nM
5 | Cc1cc(S(=O)(=O)N2CCC(c3cn4ncnc4cc3F)CC2)sn1 [Compound 500, 5-((4-(7-fluoro-[1,2,4]triazolo[1,5-a]pyridin-6-yl)piperidin-1-yl)sulfonyl)-3-methylisothiazole] | 295 nM
6 | Cc1c(S(=O)(=O)N2CCC(F)(c3cn4ncnc4cc3F)CC2)cnn1C [Compound 501, 6-(1-((1,5-dimethyl-1H-pyrazol-4-yl)sulfonyl)-4-fluoropiperidin-4-yl)-7-fluoro-[1,2,4]triazolo[1,5-a]pyridine] | 2090 nM
7 | Cn1ncc(S(=O)(=O)N2CCC(F)(c3cn4ncnc4cc3F)CC2)c1Cl [Compound 502, 6-(1-((5-chloro-1-methyl-1H-pyrazol-4-yl)sulfonyl)-4-fluoropiperidin-4-yl)-7-fluoro-[1,2,4]triazolo[1,5-a]pyridine] | 1630 nM
8 | Cn1ncc(S(=O)(=O)N2CCC(F)(c3cn4ncnc4cc3F)CC2)c1C#N [Compound 503, 4-((4-fluoro-4-(7-fluoro-[1,2,4]triazolo[1,5-a]pyridin-6-yl)piperidin-1-yl)sulfonyl)-1-methyl-1H-pyrazole-5-carbonitrile] | 1150 nM
9 | Cn1ncc(S(=O)(=O)N2CCC(F)(c3cn4ncnc4cc3F)CC2)c1C(F)F [Compound 504, 6-(1-((5-(difluoromethyl)-1-methyl-1H-pyrazol-4-yl)sulfonyl)-4-fluoropiperidin-4-yl)-7-fiuoro-[1,2,4]triazolo[1,5-a]pyridine] | 1260 nM
10 | O=S(=O)(c1cnn2c1CCC2)N1CCC(F)(c2cn3ncnc3cc2F)CC1 [Compound 505, 6-(1-((5,6-dihydro-4H-pyrrolo[1,2-b]pyrazol-3-yl)sulfonyl)-4-fluoropiperidin-4-yl)-7-fluoro-[1,2,4]triazolo[1,5-a]pyridine] | 1310 nM
11 | O=S(=O)(c1cnn2c1OCCC2)N1CCC(F)(c2cn3ncnc3cc2F)CC1 [Compound 506, 3-((4-fluoro-4-(7-fluoro-[1,2,4]triazolo[1,5-a]pyridin-6-yl)piperidin-1-yl)sulfonyl)-6,7-dihydro-5H-pyrazolo[5,1-b][1,3]oxazine] | 946 nM
12 | Cc1ncc(S(=O)(=O)N2CCC(c3cn4ncnc4cc3F)CC2)o1 [Compound 507, 5-((4-(7-fluoro-[1,2,4]triazolo[1,5-a]pyridin-6-yl)piperidin-1-yl)sulfonyl)-2-methyloxazole] | 3070 nM
13 | Cc1cc2ncnn2cc1C1CCN(S(=O)(=O)c2cnn3ccccc23)CC1 [Compound 508, 7-methyl-6-(1-(pyrazolo[1,5-a]pyridin-3-ylsulfonyl)piperidin-4-yl)-[1,2,4]triazolo[1,5-a]pyridine] | 20 nM
14 | CCc1cc2ncnn2cc1C1CCN(S(=O)(=O)c2cnn3ccccc23)CC1 [Compound 509, 7-ethyl-6-(1-(pyrazolo[1,5-a]pyridin-3-ylsulfonyl)piperidin-4-yl)-[1,2,4]triazolo[1,5-a]pyridine] | 150 nM
15 | O=S(=O)(c1cnn2ccccc12)N1CCC(c2cn3ncnc3cc2C(F)F)CC1 [Compound 510, 7-(difluoromethyl)-6-(1-(pyrazolo[1,5-a]pyridin-3-ylsulfonyl)piperidin-4-yl)-[1,2,4]triazolo[1,5-a]pyridine] | 60 nM
16 | O=S(=O)(c1cnn2ccccc12)N1CCC(c2cn3ncnc3cc2C(F)(F)F)CC1 [Compound 511, 6-(1-(pyrazolo[1,5-a]pyridin-3-ylsulfonyl)piperidin-4-yl)-7-(trifluoromethyl)-[1,2,4]triazolo[1,5-a]pyridine] | 102 nM
17 | CCc1cc2ncnn2cc1C1CCN(S(=O)(=O)c2cnc3sccn23)CC1 [Compound 512, 5-((4-(7-ethyl-[1,2,4]triazolo[1,5-a]pyridin-6-yl)piperidin-1-yl)sulfonyl)imidazo[2,1-b]thiazole] | 115 nM

Row | SMILES | IC50
18 | CCc1cc2ncnn2cc1C1CCN(S(=O)(=O)c2cnc(Cl)s2)CC1 [Compound 513, 2-chloro-5-((4-(7-ethyl-[1,2,4]triazolo[1,5-a]pyridin-6-yl)piperidin-1-yl)sulfonyl)thiazole] | 4770 nM
19 | CCc1cc2ncnn2cc1C1CCN(S(=O)(=O)c2nncn2C)CC1 [Compound 514, 7-ethyl-6-(1-((4-methyl-4H-1,2,4-triazol-3-yl)sulfonyl)piperidin-4-yl)-[1,2,4]triazolo[1,5-a]pyridine] | > 10000 nM
20 | O=S(=O)(c1cnc2sccn12)N1CCC(c2cn3ncnc3cc2C(F)F)CC1 [Compound 515, 5-((4-(7-(difluoromethyl)-[1,2,4]triazolo[1,5-a]pyridin-6-yl)piperidin-1-yl)sulfonyl)imidazo[2,1-b]thiazole] | 34 nM
21 | O=S(=O)(c1cnc(Cl)s1)N1CCC(c2cn3ncnc3cc2C(F)F)CC1 [Compound 516, 2-chloro-5-((4-(7-(difluoromethyl)-[1,2,4]triazolo[1,5-a]pyridin-6-yl)piperidin-1-yl)sulfonyl)thiazole] | 1700 nM
22 | Cn1cnnc1S(=O)(=O)N1CCC(c2cn3ncnc3cc2C(F)F)CC1 [Compound 517, 7-(difluoromethyl)-6-(1-((4-methyl-4H-1,2,4-triazol-3-yl)sulfonyl)piperidin-4-yl)-[1,2,4]triazolo[1,5-a]pyridine] | > 10000 nM
23 | O=S(=O)(c1cnc2sccn12)N1CCC(c2cn3ncnc3cc2C(F)(F)F)CC1 [Compound 518, 5-((4-(7-(trifluoromethyl)-[1,2,4]triazolo[1,5-a]pyridin-6-yl)piperidin-1-yl)sulfonyl)imidazo[2,1-b]thiazole] | 68 nM
24 | O=S(=O)(c1cnc(Cl)s1)N1CCC(c2cn3ncnc3cc2C(F)(F)F)CC1 [Compound 519, 2-chloro-5-((4-(7-(trifluoromethyl)-[1,2,4]triazolo[1,5-a]pyridin-6-yl)piperidin-1-yl)sulfonyl)thiazole] | 1590 nM
25 | Cn1cnnc1S(=O)(=O)N1CCC(c2cn3ncnc3cc2C(F)(F)F)CC1 [Compound 520, 6-(1-((4-methyl-4H-1,2,4-triazol-3-yl)sulfonyl)piperidin-4-yl)-7-(trifluoromethyl)-[1,2,4]triazolo[1,5-a]pyridine] | > 10000 nM
26 | O=S(=O)(c1cnn2ccccc12)N1CCC(c2cn3ncnc3cc2F)CC1 [Compound 521, 7-fluoro-6-(1-(pyrazolo[1,5-a]pyridin-3-ylsulfonyl)piperidin-4-yl)-[1,2,4]triazolo[1,5-a]pyridine] | 169 nM
27 | Cc1cc2ncnn2cc1C1CCN(S(=O)(=O)c2cnn(C)c2Br)CC1 [Compound 522, 6-(1-((5-Bromo-1-methyl-1H-pyrazol-4-yl)sulfonyl)piperidin-4-yl)-7-methyl-[1,2,4]triazolo[1,5-a]pyridine] | 8 nM
28 | Cc1cc2ncnn2cc1C1CCN(S(=O)(=O)c2cnc(Cl)s2)CC1 [Compound 523, 2-chloro-5-((4-(7-methyl-[1,2,4]triazolo[1,5-a]pyridin-6-yl)piperidin-1-yl)sulfonyl)thiazole] | 291 nM
29 | Cc1cc2ncnn2cc1C1CCN(S(=O)(=O)c2nncn2C)CC1 [Compound 524, 7-methyl-6-(1-((4-methyl-4H-1,2,4-triazol-3-yl)sulfonyl)piperidin-4-yl)-[1,2,4]triazolo[1,5-a]pyridine] | 493 nM
30 | O=S(=O)(c1cnc2sccn12)N1CCC(c2cn3ncnc3cc2F)CC1 [Compound 525, 5-((4-(7-fluoro-[1,2,4]triazolo[1,5-a]pyridin-6-yl)piperidin-1-yl)sulfonyl)imidazo[2,1-b]thiazole] | 186 nM
31 | Cc1cc2ncnn2cc1C1CCN(S(=O)(=O)c2cnc3sccn23)CC1 [Compound 526, 5-((4-(7-methyl-[1,2,4]triazolo[1,5-a]pyridin-6-yl)piperidin-1-yl)sulfonyl)imidazo[2,1-b]thiazole] | 14 nM
32 | [2H]C1([2H])CC(c2cn3ncnc3c(F)c2C)CC([2H])([2H])N1S(=O)(=O)c1cc(C)ns1 [Compound 527, 5-((4-(8-fluoro-7-methyl-[1,2,4]triazolo[1,5-a]pyridin-6-yl)piperidin-1-yl-2,2,6,6-d4)sulfonyl)-3-methylisothiazole] | 58 nM
33 | [2H]C1([2H])CC(c2cn3ncnc3cc2F)CC([2H])([2H])N1S(=O)(=O)c1cc(C)ns1 [Compound 528, 5-((4-(7-fluoro-[1,2,4]triazolo[1,5-a]pyridin-6-yl)piperidin-1-yl-2,2,6,6-d4)sulfonyl)-3-methylisothiazole] | 595 nM
